Several values for one entry are separate records, joined by “and”; a condition that tells them apart may be missing. Equal values may be shown once. Read-outs that look alike come from different tables or passages of the source.
Columns and labels:
[1] = tested on: M. tuberculosis (strain H37Rv and H37Ra); assay: Time kill kinetics assay (Test 3); assay type: cell-based, Mycobacterium tuberculosis; settings: compound alone 12 μg/ml
Description: Time Kill Kinetics Assays: Test 3
Bactericidal or bacteriostatic activity of the compounds can be determined in a time kill kinetic assay using the broth dilution method. In this assay, the starting inoculum of M. tuberculosis (strain H37Rv and H37Ra) is 10^6 CFU/ml in Middlebrook (1×) 7H9 broth. The test compounds (cyt bd inhibitors) are tested in combination with a cyt bc inhibitor (for example Q203 or Compound X) at the concentration ranging from 10-30 μM to 0.9-0.3 μM respectively. Tubes receiving no antibacterial agent constitute the culture growth control. The tubes containing the microorganism and the test compounds are incubated at 37° C. After 0, 1, 4, 7, 14 and 21 days of incubation samples are removed for determination of viable counts by serial dilution (10^0 to 10^−6) in Middlebrook 7H9 medium and plating (100 μl) on Middlebrook 7H11 agar. The plates are incubated at 37° C. for 21 days and the number of colonies are determined. Killing curves can be constructed by plotting the log10 CFU per ml versus time. A bactericidal effect of a cytochrome be and cytochrome bd inhibitor (either alone or in combination) is commonly defined as 2-log10 decrease (decrease in CFU per ml) compared to Day 0. The potential carryover effect of the drugs is limited by using 0.4% charcoal in the agar plates, and by serial dilutions and counting the colonies at highest dilution possible used for plating.
Compounds of the examples are/were tested in Test 3 (the kill kinetics) described above, obtaining results expressed as a log reduction in CFUs per ml as compared to Day 0.

[2] = tested on: Mycobacterium tuberculosis strain H37Rv ΔctaE-ΔqcrCAB; assay: microbe, parasite or virus in culture; assay type: cell-based; settings: 240 h
[3] = tested on: Mitochondrial toxicity (Glu/Gal); assay: Mitochondrial toxicity (Glu/Gal) assay; assay type: cell-based; parameters: key to Score: “negative” means that in the test, it was found to have low mitotoxicity (and hence no mitotoxicity alerts); “positive” means that there were some mitotoxicity alerts; “inconclusive” means that no accurate conclusion could be drawn; settings: for Δ IC50,glu/IC50,gal: ratio glu/gal
rCaCh = assay: CVS / cardio tox rCaCh; assay type: binding, rat; settings: CVS
rNaCh = assay: CVS / cardio tox rNaCh; assay type: binding, rat; settings: CVS; read-out: rNaCh IC50
hERG = hERG (Homo sapiens, UniProt Q12809); assay: CVS / cardio tox hERG (DOF); assay type: binding; settings: CVS; read-out: hERG IC50
h-cardiomyocytes = assay: CTCM Ca2+ transient h-cardiomyocytes HTS; settings: 0.1 μm, 0.2 μm, 0.5 μm, 1 μm, 2.5 μm, 5 μm
[4] = GSH and CN adducts (reactive metabolite formation)
[5] = tested on: Mycobacterium tuberculosis (strain H37Ra), cyt bd; settings: Mtb H37Ra
[6] = Log Day 0 5.56 (Q203 experiment)

hERG, sequence (Q12809 whole entry): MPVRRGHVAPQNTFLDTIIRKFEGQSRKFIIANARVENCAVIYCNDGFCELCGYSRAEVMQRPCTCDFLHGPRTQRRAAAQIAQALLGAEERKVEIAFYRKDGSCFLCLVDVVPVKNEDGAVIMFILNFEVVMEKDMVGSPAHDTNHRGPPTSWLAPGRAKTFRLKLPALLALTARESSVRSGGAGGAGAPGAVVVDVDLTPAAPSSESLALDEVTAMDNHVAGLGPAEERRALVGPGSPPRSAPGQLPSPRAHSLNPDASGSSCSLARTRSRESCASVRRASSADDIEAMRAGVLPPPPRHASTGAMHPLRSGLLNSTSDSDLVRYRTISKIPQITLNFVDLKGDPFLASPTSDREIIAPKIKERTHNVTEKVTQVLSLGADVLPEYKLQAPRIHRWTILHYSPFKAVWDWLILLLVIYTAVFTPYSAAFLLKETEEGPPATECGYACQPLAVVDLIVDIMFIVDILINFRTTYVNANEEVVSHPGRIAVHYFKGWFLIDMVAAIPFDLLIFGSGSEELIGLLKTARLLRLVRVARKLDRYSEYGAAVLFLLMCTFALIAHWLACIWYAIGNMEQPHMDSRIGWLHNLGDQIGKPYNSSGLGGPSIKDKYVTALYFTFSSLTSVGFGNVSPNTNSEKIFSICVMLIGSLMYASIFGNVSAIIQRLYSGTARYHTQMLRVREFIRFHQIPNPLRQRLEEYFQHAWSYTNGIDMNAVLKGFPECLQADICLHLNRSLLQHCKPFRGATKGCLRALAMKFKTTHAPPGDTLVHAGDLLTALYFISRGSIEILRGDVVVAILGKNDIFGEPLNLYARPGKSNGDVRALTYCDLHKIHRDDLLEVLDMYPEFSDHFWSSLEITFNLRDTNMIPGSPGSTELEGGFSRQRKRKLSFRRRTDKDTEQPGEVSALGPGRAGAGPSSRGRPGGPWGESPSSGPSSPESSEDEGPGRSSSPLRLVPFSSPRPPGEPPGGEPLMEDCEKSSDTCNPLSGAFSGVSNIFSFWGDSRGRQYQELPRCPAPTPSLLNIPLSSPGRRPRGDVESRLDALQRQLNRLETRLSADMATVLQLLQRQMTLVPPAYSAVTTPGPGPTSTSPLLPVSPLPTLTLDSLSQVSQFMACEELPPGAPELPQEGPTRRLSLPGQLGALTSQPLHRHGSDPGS

## Cc1c(-c2nc3ccc(-c4ccc(OC(F)(F)F)cc4)cn3n2)[nH]c2ccccc2c1=O [Compound 6]
[1]; [6]
  Log Day 21: 8.64 log CFUs per ml
  Log Day 21-Log Day 0: +3.08 log CFUs per ml
[1]; Log Day 0 6.66
  Log Day 21: 9.06 log CFUs per ml
  Log Day 21-Log Day 0: +2.40 log CFUs per ml
[2]
  IC50: 0.653 µM
[3]; galactose medium, read-out: IC50, gal
  IC50: 21.9 µM and 22.1 µM
[3]; glucose medium, read-out: IC50, glu
  IC50: 15.6 µM and 26.5 µM
[3]; mitotoxicity score
  Score: negative
[3]
  Δ IC50,glu/IC50,gal: 1.2
[3]; listed as 6 (repeat)
  Δ IC50,glu/IC50,gal: 1.4
rCaCh
  IC50: > 10 µM
rNaCh
  IC50: > 10 µM
hERG
  IC50: > 10 µM
AMES II b (+/−rat S9)
  AMES II b (+/−rat S9): negative
PK parameters in mice; mice
  CI: 1.69 mL/min/kg
  Fab %: 64%
PK parameters in mice; mouse, in vivo
  half-life: 5.6 h
h-cardiomyocytes
  CTCM Ca2+ transient h-cardiomyocytes HTS: all no
[4]
  GSH and CN adducts: negative
[5]; test compound 10 μM added after Compound X 0.9 μM
  (i) % OCR after cyt bd inhibitor: 39.7%
[5]; test compound 10 μM after Compound X 0.9 μM, then CCCP 1 μM
  (ii) % OCR after cccp: 58.4%

Reference: patent US20220389008A1, “4-QUINOLINONE ANTIBACTERIAL COMPOUNDS” (Janssen Sciences Ireland Unlimited Company, priority 2019, published 2022)
